The target in this test is cAMP and cAMP-inhibited cGMP 3',5'-cyclic phosphodiesterase 10A (Homo sapiens, UniProt Q9Y233). In words: PDE10A assay. Put shortly:
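Scintillation proximity readout of [3H]cGMP hydrolysis (50 nM final substrate, 15 min) by 2 ng/well human PDE10A after 15 min compound preincubation at RT, pH 7.5 with MgCl2. Four-parameter logistic fit gave IC50, reported as pIC50.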

Usually IC50 stands for the midpoint of a concentration-inhibition curve. A high value points to lower potency. Turning to `Cn1cnc(C(=O)N2CCC2)c1C(=O)Nc1ccn2nc(-c3ccccc3)nc2c1` [Roche-Dataset for PDE10A, Compound 183], half-maximal inhibition (IC50) required 21 nM.
The molecule `O=C(NC1(c2ccc(Cl)cc2)CCC1)c1nc(C2CC2)cnc1Nc1cncnc1` [Roche-Dataset for PDE10A, Compound 1074] registered an IC50 of 863 nM.
The result for `Cc1nc2ccccc2nc1CCc1nc(-c2ccccc2)cn1CC(F)(F)F` [Roche-Dataset for PDE10A, Compound 72] reads 178 nM; that for `CCN(CC)C(=O)c1cnn(C)c1C(=O)Nc1ccn2nc(N3CCOCC3)nc2c1` [Roche-Dataset for PDE10A, Compound 203], 22 nM.
Consider `CCOC(=O)c1cnn(C)c1C(=O)Nc1ccn2nc(N(C)C3CC3)nc2c1` [Roche-Dataset for PDE10A, Compound 486], for which the IC50 was 58 nM.
The result for `Cc1c(Cl)ccc2nc(/C=C/c3nc(N4CCCC4)n(C)n3)nn12` [Roche-Dataset for PDE10A, Compound 393] reads 4.58 nM; that for `Cc1ccc2c(c1)c(=O)n(C)c1c(C)nc(-c3ccccc3Cl)n21` [Roche-Dataset for PDE10A, Compound 948], 27 nM; that for `Cn1ncc(C(=O)N2CCC2)c1C(=O)Nc1ccn2nc(-c3ccccc3OCCF)nc2c1` [Roche-Dataset for PDE10A, Compound 14], 0.35 nM.
The molecule `CCOC(=O)c1nnsc1NC(=O)c1nc(C2CC2)ccc1Nc1cncnc1` [Roche-Dataset for PDE10A, Compound 1107] displayed an IC50 of 36 nM.
The result for `Cn1cc(-c2ccccc2)nc1CCNC(=O)c1nc(C2CC2)cnc1Nc1cncnc1` [Roche-Dataset for PDE10A, Compound 36] reads 16 nM; that for `O=C(Nc1cnc(Cl)cn1)c1nc(C2CC2)ccc1Nc1cncnc1` [Roche-Dataset for PDE10A, Compound 1090], 146 nM; that for `Cn1nc(-c2ccccn2)cc1NC(=O)c1cccn(C)c1=O` [Roche-Dataset for PDE10A, Compound 710], 4410 nM.
In the case of `Cn1ncc(C(=O)N2CCC2)c1C(=O)Nc1ccn2nc(-c3cccc(OCCF)n3)nc2c1` [Roche-Dataset for PDE10A, Compound 66], the midpoint of inhibition, the IC50, lay at 5.36 nM.
The result for `O=C(Nc1conc1-c1ccccn1)c1nc(C2CC2)ccc1Nc1cncnc1` [Roche-Dataset for PDE10A, Compound 990] reads 15 nM; that for `O=C(Nc1cccc(N2CCS(=O)(=O)CC2)c1)c1nc(C2CC2)cnc1Nc1cncnc1` [Roche-Dataset for PDE10A, Compound 777], 22 nM.
The same measure for `Cc1c(Cl)cc(C(F)(F)F)c2nc(CCc3nc(I)nn3C)nn12` [Roche-Dataset for PDE10A, Compound 615]: 123 nM; for `Cc1nc2ccccc2nc1CCc1nc(-c2ccccc2)cn1-c1ccccn1` [Roche-Dataset for PDE10A, Compound 17]: 1.82 nM.
`CCc1ccc(NC(=O)c2nc(C3CC3)cnc2Nc2cncnc2)c(C(=O)NCC(C)(C)O)n1` [US8703768, 181] had an IC50 of 0.41 nM.
On to `Cc1c(Cl)cc(Cl)c2nc(CCc3cn4ccccc4n3)nn12` [Roche-Dataset for PDE10A, Compound 663], for which 9.41 nM corresponded to half-maximal inhibition (IC50).
The result for `CNC(=O)c1cc2[nH]c(-c3ccccc3)nc2cc1NC(=O)c1cc(C(C)(C)C)nn1C` [Roche-Dataset for PDE10A, Compound 650] reads 114 nM; that for `COc1ccccc1-c1cn2c(n1)C[C@H](NC(=O)c1c(C(=O)N3CC(F)C3)cnn1C)CC2` [Roche-Dataset for PDE10A, Compound 379], 4.41 nM.
The same measure for `COCCN(C)C(=O)c1cnn(C)c1C(=O)Nc1cc2nc(-c3ccccc3)nn2cn1` [Roche-Dataset for PDE10A, Compound 304]: 0.79 nM; for `Cc1c(C(F)(F)F)nc2ccc(OCc3nc(-c4ccccc4)cn3C)nn12` [US10399985, Example 36]: 34 nM.
The same measure for `CN(CCF)C(=O)c1cnn(C)c1C(=O)N[C@@H]1CCn2cc(-c3ccccc3)nc2C1` [Roche-Dataset for PDE10A, Compound 190]: 205 nM; for `CNC(=O)c1cc(OC)ccc1NC(=O)c1nc(C2CC2)cnc1Nc1cncnc1` [US8703768, 225]: 0.48 nM; for `COc1cccc(-c2noc(CCN3C(=O)c4ccccc4C3=O)n2)c1` [Roche-Dataset for PDE10A, Compound 332]: 10000 nM.
The molecule `O=C(Nc1cc(-c2ccccn2)nn1C1CCCCC1)c1nc(C2CC2)ccc1Nc1cncnc1` returned an IC50 of 1.32 nM.
The result for `Cn1cncc1Cn1nc(-c2ccccn2)cc1NC(=O)c1nc(C2CC2)ccc1Nc1cncnc1` [US8470820, 37] reads 1.51 nM; that for `CS(=O)(=O)c1ccc(CNC(=O)c2nc(C3CC3)cnc2Nc2cncnc2)cc1` [Roche-Dataset for PDE10A, Compound 800], 554 nM; that for `Cc1nc2ccccc2nc1OCc1csc(N2CCOCC2)n1` [Roche-Dataset for PDE10A, Compound 951], 2370 nM.
The result for `Cc1ncc(C)n2nc(CCc3nc(N4CCCC4)nn3C)nc12` [Roche-Dataset for PDE10A, Compound 626] reads 2.3 nM.
The result for `Cc1cc(C)n2nc(/C=C/c3nc(N4CCCC4)nn3C3CC3)nc2n1` [Roche-Dataset for PDE10A, Compound 350] reads 21 nM; that for `CCN(C)C(=O)c1cnn(CCF)c1C(=O)Nc1ccn2cc(-c3ccccc3)nc2n1` [Roche-Dataset for PDE10A, Compound 26], 10000 nM.
`O=C(NCc1cocn1)c1nc(C2CC2)cnc1Nc1cncnc1` [Roche-Dataset for PDE10A, Compound 1089] displayed an IC50 of 1860 nM.
The result for `Cc1ncc(C)n2nc(/C=C/c3nc(Br)cn3-c3ccccc3)nc12` [Roche-Dataset for PDE10A, Compound 648] reads 202 nM.
The same measure for `Cn1ncc(C(=O)N2CCC2)c1C(=O)Nc1nnc(-c2ccccn2)o1` [Roche-Dataset for PDE10A, Compound 1032]: 10000 nM.
The same measure for `O=C(Nc1ccnn1S(=O)(=O)C(F)(F)F)c1nc(C2CC2)ccc1Nc1cncnc1` [Roche-Dataset for PDE10A, Compound 1004]: 30 nM.
Take `O=C(Nc1ccc(N2CCOCC2=O)cc1)c1nc(C2CC2)ccc1Nc1cncnc1` [Roche-Dataset for PDE10A, Compound 686]: half-maximal inhibition (IC50) was put at 43 nM.
The same measure for `Cc1c(Cl)cc(Cl)c2nc(CCc3cn4cccnc4n3)nn12` [Roche-Dataset for PDE10A, Compound 785]: 360 nM.
The same measure for `CCOC(=O)c1cnn(C)c1C(=O)Nc1ccn2nc(N(C)CC)nc2c1` [Roche-Dataset for PDE10A, Compound 502]: 359 nM.
In the case of `Cn1ncc(C(=O)NCCOCCO)c1C(=O)Nc1ccn2nc(-c3ccccc3)nc2c1` [Roche-Dataset for PDE10A, Compound 84], half-maximal inhibition (IC50) required 14 nM.
The same measure for `O=C(NCCc1cccc(C(F)(F)F)c1)c1nc(C2CC2)cnc1Nc1cncnc1` [Roche-Dataset for PDE10A, Compound 491]: 83 nM.
The same measure for `CCc1cnc(C)n2nc(CCc3nc(N4CCCC4)nn3C)nc12` [Roche-Dataset for PDE10A, Compound 584]: 2.86 nM; for `Cn1ncc(C(=O)N2C[C@@H]3C[C@H]2CO3)c1C(=O)Nc1ccn2nc(N3CCOCC3)nc2c1` [Roche-Dataset for PDE10A, Compound 193]: 128 nM; for `O=C(N[C@@H]1C[C@H]1c1ccccc1)c1nc(C2CC2)cnc1Nc1cncnc1` [Roche-Dataset for PDE10A, Compound 749]: 711 nM.
Take `O=C(Nc1ccc2[nH]c(-c3ccccc3)nc2c1)c1nc(C2CC2)ccc1Nc1cncnc1` [Roche-Dataset for PDE10A, Compound 423]: half-maximal inhibition (IC50) required 0.24 nM.
The same measure for `O=C(N[C@H]1CCN(c2ccccn2)C1)c1nc(C2CC2)ccc1Nc1cncnc1` [Roche-Dataset for PDE10A, Compound 1052]: 367 nM.
Regarding `Cc1cnc(C)n2nc(CCc3nc(NCCCCl)nn3C)nc12` [Roche-Dataset for PDE10A, Compound 725], the IC50 is 433 nM.
`CCCNC(=O)c1cc(NC(=O)c2c(C(=O)N3CCC3)cnn2C)nn1C` [Roche-Dataset for PDE10A, Compound 871] displayed an IC50 of 10000 nM.
The same measure for `Cc1ncc(C)n2nc(/C=C/c3nc(N4CCC[C@H]4CF)nn3C)nc12` [Roche-Dataset for PDE10A, Compound 691]: 787 nM.
The result for `O=C(NCCN1CCOCC1=O)c1nc(C2CC2)cnc1Nc1cncnc1` [Roche-Dataset for PDE10A, Compound 728] reads 2560 nM; that for `Cn1cc(-c2ccccc2)nc1CCc1ncoc1-c1ccccc1` [Roche-Dataset for PDE10A, Compound 361], 1000 nM; that for `COc1nc(OCc2nc(-c3ccccc3)cn2C)nc2ccc(Cl)cc12` [Roche-Dataset for PDE10A, Compound 198], 15 nM.
The same measure for `COc1ccc2c(=O)n(C)c3c(C(C)C)nc(-c4ccccc4Cl)n3c2c1` [Roche-Dataset for PDE10A, Compound 908]: 771 nM; for `Cc1nc(-c2ccccc2Cl)n2c3cc(Cl)ccc3c(=O)n(C)c12` [Roche-Dataset for PDE10A, Compound 987]: 6.54 nM.
Consider `Cn1ncc(Cl)c1C(=O)Nc1ccn2nc(-c3ccccc3)nc2c1` [Roche-Dataset for PDE10A, Compound 433], for which the IC50 was 208 nM.
`Cc1cccc(-c2cn3c(n2)C[C@H](NC(=O)c2c(C(=O)N4CCC4)cnn2C)CC3)c1` [Roche-Dataset for PDE10A, Compound 141] registered an IC50 of 7.36 nM.
The same measure for `O=C(N[C@@H]1C[C@@H](CO)N(c2ccc(Cl)cn2)C1)c1nc(C2CC2)ccc1Nc1cncnc1` [Roche-Dataset for PDE10A, Compound 118]: 2.35 nM; for `Cn1ncc(C(=O)N2CCC2)c1C(=O)Nc1ccn(Cc2ccc(Cl)cc2)n1` [Roche-Dataset for PDE10A, Compound 970]: 120 nM.

Source of the values: BindingDB's records for doi:10.1007/s10822-022-00478-x (Roche Innovation Center Basel, F. Hoffmann-La Roche Ltd., 2022).
